{
  "source": "EPA's ToxValDB 9.5 (doi:10.2903/j.efsa.2006.66r)",
  "key": {"Colinus virginianus": {"test_system": "Colinus virginianus", "conditions": "reproduction developmental; duration: 21 weeks; oral; diet; reproduction"}, "Tagia sp.": {"test_system": "Tagia sp.", "conditions": "chronic/long-term; duration: 56 days"}, "Oncorhynchus mykiss": {"test_system": "Oncorhynchus mykiss", "conditions": "chronic/long-term; duration: 21 days; mortality"}, "Daphnia magna": {"test_system": "Daphnia magna", "conditions": "chronic/long-term; duration: 21 days; reproduction"}, "Canidae": {"test_system": "Canidae", "conditions": "subchronic; duration: 90 days; oral; Dog Other; neurology"}, "Poecilus cupreus": {"test_system": "Poecilus cupreus", "conditions": "not reported; mortality"}, "Rattus norvegicus": {"test_system": "Rattus norvegicus", "conditions": "for NOAEL: neurology"}},
  "data": [
    {"smiles": "CCCSP(=O)(OCC)SCCC", "note": "[Ethoprop]", "values": [
      {"measurement": "NOEC", "setting": "Colinus virginianus", "value": "< 0.6", "unit": "mg/kg-day"},
      {"measurement": "NOEC", "setting": "Tagia sp.", "value": "< 1.67", "unit": "mg/kg"},
      {"measurement": "NOEC", "setting": "Oncorhynchus mykiss", "value": 0.064, "unit": "mg/L"},
      {"measurement": "NOEC", "setting": "Daphnia magna", "value": 0.002, "unit": "mg/L"},
      {"measurement": "NOAEL", "setting": "Canidae", "value": 0.1, "unit": "mg/kg-day"},
      {"measurement": "LEL", "setting": "Poecilus cupreus", "value": 7000, "unit": "g/ha"},
      {"measurement": "NOAEL", "setting": "Rattus norvegicus; acute, oral", "value": 1, "unit": "mg/kg-day"},
      {"measurement": "NOAEL", "setting": "Rattus norvegicus; chronic, duration: 2 years", "value": 0.04, "unit": "mg/kg-day"},
      {"measurement": "NOEL", "setting": "Rattus norvegicus; reproduction developmental, reproduction", "value": 1.3, "unit": "mg/kg-day"},
      {"measurement": "NOAEL", "setting": "Rattus norvegicus; short-term, duration: 28 days, oral", "value": 0.1, "unit": "mg/kg-day"}
    ]}
  ]
}
